Source: US20040002444A1, “Polyphosphate-water soluble collagen complexes and process for preparation thereof” (Toshikazu SHIBA, priority 2002, published 2004)

Tests used:
[1] = test system: alveolar bone of rats (artificial periodontal pockets); assay: Regeneration of the periodontal tissue in rats (Example 3); format: in vivo, Wister male rats; details: approx. 0.1 ml injected into gingival crevices everyday, up to 3 weeks; light microscope
Description: Next, to confirm the effect of the prepared polyphosphate-collagen complex in regenerating the periodontal tissue, an experiment for the regeneration of the periodontal tissue was performed using rats. Wister male rats (8 weeks old; 18 rats in total) were anesthetized. Then, using a ½ round bar, approximately 2 mm portions were removed from the buccal alveolar bone crest of the mandibular first and second molars, and artificial periodontal pockets (gingival crevices) were formed. In the treated group (9 rats), approximately 0.1 ml of the polyphosphate-collagen complexes prepared in Example 2 was injected using a syringe into the thus formed gingival crevices. In the comparison group (9 rats), only the collagen was injected. The injection procedure was performed everyday from the day following the operation to prepare the gingival crevice, and continued for 3 weeks at the longest.
The rats treated for a certain period were euthanized by inhalation anesthesia (enflurane), and the tissues were fixed by perfusion fixation. Perfusion fixation was performed by letting 300 ml of physiological saline and then 10% neutral buffered formalin solution (pH 7.4, 500 ml) to flow through the blood vessel. […] In addition, the area of the regenerated alveolar bone was measured as the area of bone formation by calculating the sum of the bone areas in the sections with image processing.

[2] = test system: alveolar bone of rats (artificial periodontal pockets); assay: Regeneration of the periodontal tissue in rats, influence of polyphosphate chain length (Example 4); format: in vivo, Wister male rats; details: measured at 15 days after operation; for area of the regenerated alveolar bone: approx. 0.1 ml injected into gingival crevices once a day for 14 days
Description: Next, an experiment of the regeneration of the periodontal tissue in rats was performed using the 3 prepared types of polyphosphate-collagen complexes. In a manner similar to Example 3, Wister male rats (8 weeks old) were anesthetized. Then, using a ½ round bar, approximately 2 mm portions were removed from the buccal alveolar bone crest of the mandibular first and second molars, and artificial periodontal pockets (gingival crevices) were formed. In the treated group, approximately 0.1 ml of either one type of the above polyphosphate-collagen complexes was injected using a syringe into the thus formed gingival crevices. The treated groups were: treated group 1 that was treated with the polyphosphate-collagen complex containing polyphosphates having an average chain length of 15; treated group 2 that was treated with the polyphosphate-collagen complex containing polyphosphates having an average chain length of 35; and treated group 3 that was treated with the polyphosphate-collagen complex containing polyphosphates having an average chain length of 75. The comparison groups were: comparison group 1 that was treated only with collagen and comparison group 2 that was treated with a mixed solution of a sodium phosphate buffer and collagen. Injection (approximately 0.1 ml) into the gingival crevices of each group was performed similarly to that for the treated groups. For all the groups, 3 rats were used per group. In addition, the injection was performed once a day and everyday from the day following the operation to prepare the gingival crevice, and was continued for 14 days.
After the above treatment, at 15 days after the operation to prepare the gingival crevice, tissue sections (samples) were prepared in a manner similar to that in Example 3 from the rats of each group, and then the area of the formed alveolar bone was measured. The areas of the regenerated alveolar bones as measured for rat individuals included in 3 treated groups and 2 comparison groups are as shown in Table 1.

Substance: collagen [Comparison group 1]
- staining of the tissues: regeneration of alveolar bone (FIG. 2) [1]: no increase was observed in the alveolar bone
- area of the regenerated alveolar bone ([2]; Individual 1): 0.5422 mm^2
- area of the regenerated alveolar bone ([2]; Individual 2): 0.5909 mm^2
- area of the regenerated alveolar bone ([2]; Individual 3): 0.6569 mm^2
- area of the regenerated alveolar bone, Average ([2]; average of 3 rats per group, approx. 0.1 ml injected once a day for 14 days): 0.5967 mm^2
